Values quoted from earlier work as cited in patent US20130079371A1, “Bioadhesive Compositions of Local Anaesthetics” (PHARMANEST AB, priority 2010, published 2013).

Structure (SMILES): CCCCN1CCCC[C@H]1C(=O)Nc1c(C)cccc1C [levobupivacaine]
- pKa: 8.1
